Experimental data as given in patent publication US20230110491A1, “LUCIFERASE-BASED METHODS FOR DETECTING BACTERIAL AND FUNGAL CELLS AND ASSESSING SUSCEPTIBILITY OF BACTERIAL CELLS TO ANTIBIOTICS” (Biosynth AG, priority 2020, published 2023).
Values after ≈ are worked out from the molar mass of the structure shown. Blank lines part the entries; values can stand above or below the compound they belong to.

Tests used:
[1] = tested on: Salmonella enteritidis RKI 05/07992; experiment: Coupled enzyme assay using pro-luciferins on solid nutrient agar with luciferase and ATP; type: cell-based; conditions: solid nutrient agar with luciferase, pro-luciferin and 1 mM ATP; approx. 10 CFU/well; 37° C.
Protocol: (§1) Nutrient agar pH 7.4 (5 g/I peptone, 5 g/I NaCl, 2 g/I yeast extract, 1 g/I meat extract, 15 g/I agar) was autoclaved and cooled to 50° C. […] Next, 40 μM D-luciferin (Biosynth AG) was added from a concentrated stock solution.
(§2) Actively growing cultures (Nutrient Broth, 37° C., OD600 0.08 to 0.33) of Staphylococcus aureus ATCC 29213 and Salmonella enteritidis RKI 05/07992 were then diluted to […] in sterile PBS and inoculated to microplate wells with agar (1 μl per well=approx. 10 CFU/well). 1 μl sterile phosphate buffered saline (PBS) was added to sterile control wells. The surrounding wells were filled with sterile water and the plate was incubated at 37° C. in a luminescence microplate reader. The luminescence was measured every 10 min (kinetic mode).
(§3) (Biosynth AG) and 1 mM ATP.

[2] = tested on: Staphylococcus aureus ATCC 29213; experiment: as above; type: cell-based; conditions: solid nutrient agar with luciferase, pro-luciferin and 1 mM ATP; approx. 10 CFU/well; 37° C.
Protocol: as §1, §2, §3

[3] = tested on: Ampicillin sensitive (AMP^S) E. coli ATCC 25922; experiment: Optical density (600 nm) after 15 h incubation with ampicillin; type: cell-based, Escherichia coli
Protocol: (§4) Ampicillin was added from a dilution series of a filter-sterilized, concentrated stock solution prepared in sterile ultrapure water (5 μl per well). Sterile water was added to control wells without antibiotic. Wells were inoculated with 5 μl of cell suspensions (OD 0.1, prepared in sterile PBS from agar plate pre-cultures) of either Ampicillin resistant (AMP^R) E. coli RKI 66/09 (AmpC) or Ampicillin sensitive (AMP^S) E. coli ATCC 25922. Initial cell concentration in wells was approximately 2.5×10^6 CFU/ml. The microplate was incubated at 37° C. in a luminescence microplate reader and relative luminescence units (RLU) were measured every 2 min for 8 h. For comparison, optical density (600 nm) was measured for all wells after 15 h incubation at 37° C.

[4] = tested on: Ampicillin resistant (AMP^R) E. coli RKI 66/09 (AmpC); experiment: as above; type: cell-based, Escherichia coli; conditions: all tested ampicillin concentrations
Protocol: as §4

[5] = tested on: Ampicillin sensitive (AMP^S) E. coli ATCC 25922; experiment: ATP assay for antibiotic susceptibility testing (luminescence, ATP release); type: cell-based, Escherichia coli
Protocol: (§5) Nutrient broth pH 7.4 (5 g/I peptone, 5 g/I NaCl, 2 g/I yeast extract, 1 g/I meat extract) was autoclaved and cooled to room temperature. […] Next, 0.4 mM D-luciferin (Biosynth AG) and 1 mM MgCl2 was added from concentrated stock solutions. The prepared broth was sterilized by filtration (0.2 μm), incubated for 2.5 h at 30° C. in order to burn-off background and then added to a white microplate (0.198 ml per well).
as §4

[6] = tested on: Ampicillin resistant (AMP^R) E. coli RKI 66/09 (AmpC); experiment: as above; type: cell-based, Escherichia coli
Protocol: as §5, §4

Compound: CCCCCCCC(=O)Oc1ccc(COc2ccc3nc(C4=N[C@@H](C(=O)O)CS4)sc3c2)cc1 [D-luciferin-spacer-caprylate]
incubation time after which luminescence begins to strongly increase [1]: about 10 hours
incubation time after which luminescence increases [2]: about 17 hours

MIC ([3]; Escherichia coli, ATCC25922, OD 600 nm, 15 h, 37° C., read-out: MIC from optical density after 15 h): ~6 µg/mL (≈ 17.2 µM)
Compound: CC1(C)S[C@@H]2[C@H](NC(=O)[C@H](N)c3ccccc3)C(=O)N2[C@H]1C(=O)O [ampicillin]
cell growth (optical density after 15 h) ([3]; 10-100 μg/ml ampicillin): lack of cell growth
growth inhibition (optical density after 15 h) [4]: no growth inhibition
ATP release at non-inhibitory concentration ([5]; 1.56 μg/ml ampicillin): very high amounts of ATP are released
time after which ATP increase can be detected ([5]; at inhibitory antibiotic concentrations, cell concentrations as low as 2×10^6 CFU/ml): 30 min
ATP release compared to the control without antibiotic ([5]; at the MIC or above (6.25, 25, 100 μg/ml)): occurs earlier and is increased
dependency of onset time on ampicillin concentration ([5]; onset time = first time point with RLU above 1200): inversely correlates with ampicillin concentration
time course of ATP release ([6]; 1.56-100 μg/ml ampicillin): independent of ampicillin concentration
dependency of onset time on ampicillin concentration ([6]; onset time = first time point with RLU above 1200, all tested concentrations): essentially the same onset time
